Results from patent US6984649B1, “Pyridine derivatives” (Bayer Aktiengesellschaft, priority 2000, dated 2006).
Counter-ions that a name gives are not always drawn.

target: T1, human IKK-β (Homo sapiens, UniProt O14920); test: IKK-β kinase inhibitory assay; format: biochemical; settings: compounds as yielded by solid phase synthesis, purity about 40 to 90%, read-out: In vitro activity grade (In vitro IC50)
T1 construct: A cDNA fragment encoding human IKK-β open reading frame was generated by PCR; His tag (from pcDNA3.1/His C); made in house; host or cells: Sf21 insect cells (baculovirus); substrate made in E. coli
T1 sequence (O14920 1-756): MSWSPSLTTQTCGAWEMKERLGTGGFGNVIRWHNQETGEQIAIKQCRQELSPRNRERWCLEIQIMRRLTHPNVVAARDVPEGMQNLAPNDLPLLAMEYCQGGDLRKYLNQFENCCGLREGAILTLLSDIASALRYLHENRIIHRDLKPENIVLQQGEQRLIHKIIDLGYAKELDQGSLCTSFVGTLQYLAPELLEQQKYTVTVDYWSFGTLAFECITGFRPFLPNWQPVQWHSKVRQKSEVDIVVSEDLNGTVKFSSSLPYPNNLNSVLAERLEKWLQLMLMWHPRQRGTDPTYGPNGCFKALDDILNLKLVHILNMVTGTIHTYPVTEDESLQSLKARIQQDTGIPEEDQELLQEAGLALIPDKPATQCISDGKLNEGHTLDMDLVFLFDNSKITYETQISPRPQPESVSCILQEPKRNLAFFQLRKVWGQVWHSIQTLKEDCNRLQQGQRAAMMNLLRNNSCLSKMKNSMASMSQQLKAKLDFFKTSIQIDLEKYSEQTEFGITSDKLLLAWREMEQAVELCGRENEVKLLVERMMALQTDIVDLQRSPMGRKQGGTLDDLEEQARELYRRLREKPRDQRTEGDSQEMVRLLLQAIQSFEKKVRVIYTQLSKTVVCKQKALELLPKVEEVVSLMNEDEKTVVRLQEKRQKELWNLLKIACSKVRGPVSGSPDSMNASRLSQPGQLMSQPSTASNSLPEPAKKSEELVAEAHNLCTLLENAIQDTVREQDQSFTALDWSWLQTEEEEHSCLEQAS
How it was run: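 Radiometric read-out: streptavidin capture of 33P-labelled bio-GST-IκBα(1-54), 0.2 μM, after a 2 h room-temperature reaction started with ATP/[γ-33P]ATP. Enzyme was recombinant His-tagged human IKK-β expressed in Sf21 insect cells, used at 0.6 μg/ml in Tris-HCl pH 7.6/MgCl2 kinase buffer. Compounds added in 2.5% DMSO.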

| SMILES | IC50 |
| --- | --- |
| N#Cc1c(C2CCCNC2)cc(-c2c(O)cccc2OCCN2CCCCC2)nc1N (stereo not drawn) [Example 2-83] | 0.5 to 2 µM |
| N#Cc1c(C2CCCNC2)cc(-c2c(O)cccc2OCCN2CCOCC2)nc1N (stereo not drawn) [Example 2-84] | < 0.5 µM |
| CN(C)CCOc1cccc(O)c1-c1cc(C2CCCNC2)c(C#N)c(N)n1 (stereo not drawn) [Example 2-85] | 0.5 to 2 µM |
| N#Cc1c(C2CCCNC2)cc(-c2c(O)cccc2OCCN2CCCCCC2)nc1N (stereo not drawn) [Example 2-86] | 2 to 10 µM |
| N#Cc1c(C2CCCNC2)cc(-c2c(O)cccc2OCCN2CCCC2)nc1N (stereo not drawn) [Example 2-87] | 2 to 10 µM |
| CCOC(=O)C1Cc2c(C3CCCNC3)cc(-c3ccccc3O)nc2NC1=O (stereo not drawn) [Example 26-1, ethyl 7-(2-hydroxyphenyl)-2-oxo-5-(3-piperidinyl)-1,2,3,4-tetrahydro-1,8-naphthyridine-3-carboxylate] | < 0.5 µM |
| O=C1CCc2c(C3CCCNC3)cc(-c3ccccc3O)nc2N1 (stereo not drawn) [Example 27-1, 7-(2-hydroxyphenyl)-5-(3-piperidinyl)-3,4-dihydro-1,8-naphthyridin-2(1H)-one hydrochloride] | < 0.5 µM |

Continued, values first:

| IC50 | SMILES |
| --- | --- |
| < 0.5 µM | CCOC(=O)N1Cc2c(C3CCCNC3)cc(-c3c(O)cccc3OCC3CC3)nc2NC1=O (stereo not drawn) [Example 24-2, ethyl 7-[2-(cyclopropylmethoxy)-6-hydroxyphenyl]-2-oxo-5-(3-piperidinyl)-1,4-dihydropyrido[2,3-d]pyrimidine-3(2H)-carboxylate hydrochloride] |
| < 0.5 µM | O=C1Nc2nc(-c3c(O)cccc3OCC3CC3)cc(C3CCCNC3)c2CN1C(=O)NC1CCCCC1 (stereo not drawn) [Example 24-3, N-cyclohexyl-7-[2-(cyclopropylmethoxy)-6-hydroxyphenyl]-2-oxo-5-(3-piperidinyl)-1,4-dihydropyrido[2,3-d]pyrimidine-3(2H)-carboxamide hydrochloride] |
| < 0.5 µM | CS(=O)(=O)N1Cc2c(C3CCCNC3)cc(-c3c(O)cccc3OCC3CC3)nc2NC1=O (stereo not drawn) [Example 24-4, 7-[2-(cyclopropylmethoxy)-6-hydroxyphenyl]-3-(methylsulfonyl)-5-(3-piperidinyl)-3,4-dihydropyrido[2,3-d]pyrimidin-2(1H)-one hydrochloride] |
| < 0.5 µM | CCOC(=O)c1cc2c(C3CCCNC3)cc(-c3ccccc3O)nc2[nH]c1=O (stereo not drawn) [Example 25-1, ethyl 7-(2-hydroxyphenyl)-2-oxo-5-(3-piperidinyl)-1,2-dihydro-1,8-naphthyridine-3-carboxylate hydrochloride] |
| < 0.5 µM | O=c1[nH]c2nc(-c3c(O)cccc3OCC3CC3)cc(C3CCCNC3)c2cc1F (stereo not drawn) [Example 25-2, 7-[2-(cyclopropylmethoxy)-6-hydroxyphenyl]-3-fluoro-5-(3-piperidinyl)-1,8-naphthyridin-2(1H)-one hydrochloride] |
| < 0.5 µM | NC(=O)c1cc2c(C3CCNCC3)cc(-c3c(O)cccc3OCC3CC3)nc2[nH]c1=O [Example 25-3, 7-[2-(cyclopropylmethoxy)-6-hydroxyphenyl]-2-oxo-5-(4-piperidinyl)-1,2-dihydro-1,8-naphthyridine-3-carboxamide hydrochloride] |
| < 0.5 µM | O=c1ccc2c(C3CCCNC3)cc(-c3c(O)cccc3OCC3CC3)nc2[nH]1 (stereo not drawn) [Example 25-4, 7-[2-(cyclopropylmethoxy)-6-hydroxyphenyl]-5-(3-piperidinyl)-1,8-naphthyridin-2(1H)-one hydrochloride] |
| < 0.5 µM | NC(=O)C1Cc2c(C3CCNCC3)cc(-c3c(O)cccc3OCC3CC3)nc2NC1=O (stereo not drawn) [Example 26-2, 7-[2-(cyclopropylmethoxy)-6-hydroxyphenyl]-2-oxo-5-(4-piperidinyl)-1,2,3,4-tetrahydro-1,8-naphthyridine-3-carboxamide hydrochloride] |
